Experimental data: ChEMBL document CHEMBL6103536, “Chemical Space Profiling of SARS-CoV-2 PLpro Using DNA-Encoded Focused Libraries” (ACS Med Chem Lett, 2024); call rule not given here

Experiments:
[1] = target: Replicase polyprotein 1ab (Severe acute respiratory syndrome coronavirus 2) (UniProt P0DTD1); experiment: Inhibition of SARS Cov-2 papain-like protease extracted form Escherichia coli Rosetta (DE3) using fluorogenic substrate RLRGG-AMC assessed as inhibition rate by measuring fluorescent signal at 4 uM incubated for 30 mins relative to control
[2] = target: Replicase polyprotein 1ab (Severe acute respiratory syndrome coronavirus 2, UniProt P0DTD1); experiment: Inhibition of SARS Cov-2 papain-like protease extracted form Escherichia coli Rosetta (DE3) using fluorogenic substrate RLRGG-AMC assessed as inhibition rate by measuring fluorescent signal incubated for 30 mins

Row | SMILES | inhibition [1] | IC50 [2] [nM]
1 | Cc1ccc(NCc2ccc(CC(=O)O)cc2)cc1C(=O)N[C@H](C)c1cccc2ccccc12 | Active; Compound Showed Weak Inhibitory Effect | 
2 | CCOC(=O)CCCNCc1ccc(-c2cccc([C@@H](C)NC(=O)c3cc(NC4CNC4)ccc3C)c2)s1 |  | 250
3 | Cc1ccc(NC(=O)c2cc(Br)cnc2Cl)cc1C(=O)N[C@H](C)c1cccc2ccccc12 | 19% | 
4 | COC(=O)Cc1ccc(CNc2ccc(C)c(C(=O)N[C@H](C)c3cccc4ccccc34)c2)cc1 | 21% | 2910
5 | Cc1ccc(NC2CNC2)cc1C(=O)N[C@H](C)c1cccc(-c2ccc(CN3CC[C@@H](C(=O)O)C3)s2)c1 |  | 270
6 | Cc1ccc(N)cc1C(=O)N[C@H](C)c1cccc2ccccc12 | 68% | 
7 | Cc1ccc(NC(=O)c2cc(Br)cnc2O)cc1C(=O)N[C@H](C)c1cccc2ccccc12 | Active; Compound Showed Weak Inhibitory Effect | 
8 | C[C@@H](NC(=O)c1cc(N)ccc1O)c1cccc2ccccc12 | 6% | 
9 | CCOC(=O)[C@@H]1CCN(Cc2ccc(-c3cccc([C@@H](C)NC(=O)c4cc(NC5CNC5)ccc4C)c3)s2)C1 |  | 1940
10 | CC[C@@H](C)[C@@H](NC(=O)c1ccc(-c2cccc([C@@H](C)NC(=O)c3cc(N)ccc3C)c2)s1)C(=O)OC | 73% | 2720
11 | COc1ccc([N+](=O)[O-])c(C(=O)Nc2ccc(C)c(C(=O)N[C@H](C)c3cccc4ccccc34)c2)c1 | 53% | 
12 | Cc1ccc(N)cc1C(=O)N[C@H](C)c1cccc(-c2ccc(C=O)s2)c1 | 30% | 
13 | CCOC(=O)CCCNCc1ccc(-c2cccc([C@@H](C)NC(=O)c3cc(N)ccc3C)c2)s1 | Active; Compound Showed Weak Inhibitory Effect | 
14 | COC(=O)[C@@H](CCC(=O)OC(C)(C)C)NCc1ccc(-c2cccc([C@@H](C)NC(=O)c3cc(N)ccc3C)c2)s1 (racemic) | 81% | 4710
15 | Cc1ccc(NC(=O)c2cccs2)cc1C(=O)N[C@H](C)c1cccc2ccccc12 | Active; Compound Showed Weak Inhibitory Effect | 
16 | Cc1ccc(NC(=O)Oc2ccc([N+](=O)[O-])cc2)cc1C(=O)N[C@H](C)c1cccc2ccccc12 | 27% | 
17 | Cc1ccc(NC(=O)c2ccc(Cl)s2)cc1C(=O)N[C@H](C)c1cccc2ccccc12 | 13% | > 20000
18 | Cc1ccc(NC(=O)c2cccnc2O)cc1C(=O)N[C@H](C)c1cccc2ccccc12 | Active; Compound Showed Weak Inhibitory Effect | 
19 | Cc1ccc(NC(=O)c2ccnc(O)c2)cc1C(=O)N[C@H](C)c1cccc2ccccc12 | 74% | 
